Measurements taken from patent US7494976B2, “Caveolin peptides and their use as therapeutics” (Yale University, priority 2000, dated 2009).
Entries after “also recorded” stand apart in the source; their conditions may differ. Ends that are not written are not given here. Peptide text beside a SMILES is read from it.

Columns and labels:
mouse aorta = assay: Uptake of biotinylated peptides into the vessel wall of mouse aorta; conditions: biotinylated peptides 100 μM, twenty hours, HRP staining
Procedure: The uptake of AP-Cav into the vessel wall was examined next. A biotinylated version of AP-Cav and AP-Cav-X was synthesized. After twenty hours of incubation with the biotinylated peptides (100 μM) or vehicle, rings were placed in a dish and washed twice with PBS (twenty minutes each time) with light shaking, in order to eliminate the excess of biopeptide that could deposit over the tissue. Then the rings were embedded in OCT medium and cross sections ([…] thickness) were obtained for staining with an avidin-horseradish peroxidase complex and reactivity was detected with 3-amino-9-ethylcarbazole (AEC).

prostacyclin production = assay: Prostacyclin release from mouse aortic rings (6-keto-PGF1α by EIA); conditions: ibuprofen 10 μM
Procedure: To further test the specificity of AP-Cav, Ach-induced prostacyclin production was measured. For measurement of prostacyclin release, after twenty hour incubation period, aortic segments (4-5 mm) were placed in sterile 48-well tissue culture plates with 300 μl of KHS at 37° C. for thirty minutes in an incubator. Then aliquots of […] were taken in order to measure the basal release of prostacyclin. Ach (1 μM) was added and the plate was kept in the incubator for an additional thirty minutes. Aliquots were then taken in order to measure the Ach-stimulated release of prostacyclin. This protocol was performed in absence or in presence of ibuprofen (10 μM). The aliquots were frozen and prostacyclin release was measured as the stable breakdown product, 6-keto-PGF1α, by EIA (Amersham).

isolated mouse aorta = assay: Ach-induced relaxation of isolated mouse aortic rings (organ bath); conditions: AP alone 30 μM, twenty hours incubation
Procedure: For isolated mouse aortic rings preparations, male C57 black mice (5-7 weeks of age) were anesthetized with methoxyflurane and sacrificed by exsanguination. The thoracic aorta was dissected and cut into cylindrical segments of three millimeters in length. Using a sterile 48-well tissue culture plate, each ring was incubated in a total volume of one ml with either peptides or vehicle (DMSO) diluted in DMEM supplemented with penicillin (100 units/ml), streptomycin (100 μg/ml) and L-glutamine (1 mM). The plate was incubated with 5% CO2. Following incubation with the peptides (one, six, twelve or twenty hours), rings were washed in oxygenated (95% O2-5% CO2) Krebs-Henseleit bicarbonate buffer solution (KHS) of the following composition (NaCl—118.3 mmol/L, KCl—4.7 mmol/L, CaCl2—2.5 mmol/L, MgSO4—1.2 mmol/L, KH2PO4—1.2 mmol/L, NaHCO3—25 mmol/L, glucose—5.6 mmol/L at 37° C. with ibuprofen (10 μM). The rings were suspended by two tungsten wires ([…] thickness) inserted into the lumen and mounted in a vessel myograph system (five ml chamber, Kent Scientific). The mouse aortas were submitted to a resting tension of 1.5 grams and isometric tension was recorded using a force transducer coupled to a MacLab data acquisition system. […] In some experiments concentration-response curves to the contractile effects of PE were monitored.

isolated mouse aortas = assay: Sodium nitroprusside induced (endothelium independent) relaxation of mouse aorta; conditions: AP 30 μM, twenty hours; SNP 10 μM
[1] = Systemic arterial blood pressure and heart rate in mice; assay type: in vivo, mouse
[2] = conditions of the edema study, n=4 mice

**Q.** For `CC[C@H](C)[C@H](NC(=O)CNC(=O)[C@H](Cc1c[nH]c2ccccc12)NC(=O)[C@H](CCCCN)NC(=O)[C@H](CCCCN)NC(=O)[C@H](Cc1c[nH]c2ccccc12)NC(=O)[C@H](CCCCN)NC(=O)[C@H](CCSC)NC(=O)[C@H](CCCNC(=N)N)NC(=O)[C@H](CCCNC(=N)N)NC(=O)[C@H](CC(N)=O)NC(=O)[C@H](CCC(N)=O)NC(=O)[C@H](Cc1ccccc1)NC(=O)[C@H](Cc1c[nH]c2ccccc12)NC(=O)[C@@H](NC(=O)[C@H](CCCCN)NC(=O)[C@@H](NC(=O)[C@H](CCC(N)=O)NC(=O)[C@H](CCCNC(=N)N)NC(=O)CCCCCNC(=O)CCCC[C@@H]1SC[C@@H]2NC(=O)N[C@@H]21)[C@@H](C)CC)[C@@H](C)CC)C(=O)N[C@@H](CC(=O)O)C(=O)N[C@@H](CCCCN)C(=O)N[C@@H](C)C(=O)N[C@@H](Cc1ccccc1)C(=O)N[C@@H](Cc1ccccc1)C(=O)N[C@H](C(=O)N[C@H](C(=O)N[C@@H](CO)C(=O)N[C@H](C(=O)N[C@H](C(=O)N[C@H](C(=O)N[C@@H](Cc1ccc(O)cc1)C(=O)N[C@@H](CCCCN)C(=O)N[C@@H](Cc1c[nH]c2ccccc12)C(=O)N[C@@H](Cc1ccccc1)C(=O)N[C@@H](CCCNC(=N)N)C(=O)N[C@@H](Cc1ccc(O)cc1)C(=O)O)[C@@H](C)O)C(C)C)[C@@H](C)O)[C@@H](C)O)[C@@H](C)O` [Biot-AP-Cav-X] (HELM PEPTIDE1{[O=C1N[C@H]2[C@H](CS[C@H]2CCCCC(=O)[*:2])N1].[O=C(CCCCCN[*:1])[*:2]].R.Q.I.K.I.W.F.Q.N.R.R.M.K.W.K.K.W.G.I.D.K.A.F.F.T.T.S.T.V.T.Y.K.W.F.R.Y}$$$$V2.0; N-terminus and C-terminus assumed), which “uptake into the vessel wall” value (mouse aorta) is on record?
**A.** The value was “uptake of both AP-Cav and AP-Cav-X into the endothelium and adventitial lining of the vessel”.

**Q.** With `CC[C@H](C)[C@H](NC(=O)CNC(=O)[C@H](CC(=O)O)NC(=O)[C@H](CCCCN)NC(=O)[C@H](CCCCN)NC(=O)[C@H](Cc1c[nH]c2ccccc12)NC(=O)[C@H](CCCCN)NC(=O)[C@H](CCSC)NC(=O)[C@H](CCCNC(=N)N)NC(=O)[C@H](CCCNC(=N)N)NC(=O)[C@H](CC(N)=O)NC(=O)[C@H](CCC(N)=O)NC(=O)[C@H](Cc1ccccc1)NC(=O)[C@H](Cc1c[nH]c2ccccc12)NC(=O)[C@@H](NC(=O)[C@H](CCCCN)NC(=O)[C@@H](NC(=O)[C@H](CCC(N)=O)NC(=O)[C@H](CCCNC(=N)N)NC(=O)CCCCCNC(=O)CCCC[C@@H]1SC[C@@H]2NC(=O)N[C@@H]21)[C@@H](C)CC)[C@@H](C)CC)C(=O)N[C@@H](Cc1c[nH]c2ccccc12)C(=O)N[C@@H](CCCCN)C(=O)N[C@@H](C)C(=O)N[C@@H](CO)C(=O)N[C@@H](Cc1ccccc1)C(=O)N[C@H](C(=O)N[C@H](C(=O)N[C@@H](Cc1ccccc1)C(=O)N[C@H](C(=O)N[C@H](C(=O)N[C@H](C(=O)N[C@@H](CCCCN)C(=O)N[C@@H](Cc1ccc(O)cc1)C(=O)N[C@@H](Cc1c[nH]c2ccccc12)C(=O)N[C@@H](Cc1ccccc1)C(=O)N[C@@H](Cc1ccc(O)cc1)C(=O)N[C@@H](CCCNC(=N)N)C(=O)O)[C@@H](C)O)C(C)C)[C@@H](C)O)[C@@H](C)O)[C@@H](C)O` [Biot-AP-Cav] (HELM PEPTIDE1{[O=C1N[C@H]2[C@H](CS[C@H]2CCCCC(=O)[*:2])N1].[O=C(CCCCCN[*:1])[*:2]].R.Q.I.K.I.W.F.Q.N.R.R.M.K.W.K.K.D.G.I.W.K.A.S.F.T.T.F.T.V.T.K.Y.W.F.Y.R}$$$$V2.0; N-terminus and C-terminus assumed) as the molecule, how does the “uptake into the vessel wall” value (mouse aorta) read?
**A.** Its value is “uptake of both AP-Cav and AP-Cav-X into the endothelium and adventitial lining of the vessel”.

**Q.** For `CC(C)Cc1ccc(C(C)C(=O)O)cc1` (centres unmarked) [ibuprofen], which “Ach-induced prostacyclin production (6-keto-PGF1α)” value (prostacyclin production) is on record?
**A.** Its value is “abolished”.

**Q.** For “AP: Antennapedia internalization sequence (RQIKIWFQNRRMKWKK), SEQ ID NO: 10, alone (Drosophila melanogaster; DOMAIN (1)..(16) Homeodomain, internalization sequence)”, which “effect on Ach-induced relaxation” value (isolated mouse aorta) is on record?
**A.** Its value is “did not influence Ach-induced relaxation; also recorded: does not affect Ach induced relaxations”.

**Q.** What about the “effect on vasorelaxant properties of sodium nitroprusside” value (isolated mouse aortas) of the same molecule?
**A.** The value was “had no effect”.

**Q.** Which heart rate [1, 2] does the source give for “RQIKIWFQNRRMKWKKDGIWKASFTTFTVTKYWFYR [AP-Cav]” here?
**A.** The heart rate was 320±29 beats per minute.

**Q.** And the “systemic arterial blood pressure” value [1, 2]?
**A.** The value was 80±7 mm Hg.

**Q.** And the “effect on blood pressure when delivered in vivo” value ([1]; preliminary evidence)?
**A.** The value was “do not increase blood pressure”.
